In patent US20250302981A1, “NOVEL USE OF ANTICANCER AGENT PRODRUG CONJUGATE” (UNIVERSITY OF ULSAN FOUNDATION FOR INDUSTRY COOPERATION, priority 2020, published 2025):
*1 amine or outer side, *2 acyl side, *3 side chain or, on linkers, in order; H or OH if unused. Where a SMILES comes first, the peptide text is derived from it. [ ]: non-standard residue; d: D form. The star is where a group is joined. Doxorubicin(3'-N) = COc1cccc2c1C(=O)c1c(O)c3c(c(O)c1C2=O)C[C@@](O)(C(=O)CO)C[C@@H]3O[C@H]1C[C@H](N*)[C@H](O)[C@H](C)O1; Hexanoyl(6-maleimido) = O=C1C=CC(=O)N1CCCCCC(=O)*; PABC = O=C(OCc1ccc(N[*:1])cc1)[*:2]

Tests used:
[1] = Pharmacokinetic analysis in cynomolgus monkeys; assay type: in vivo; details: intravenous, equivalent to 1 mg/kg doxorubicin
Protocol: Blood samples were collected at 15, 30, 45, 60, and 90 min intervals, and then again at 2, 3, 4, 6, 8, 12, 24, 48, 72, 96, 120, 144, and 168 h. The blood samples were stabilized with sodium citrate and then cryocentrifuged at 2000×g for 15 min to obtain plasma. 200 μl of the plasma sample was added to a 96-well black microplate and the fluorescence of doxorubicin was measured at 485/590 nm. The reference was fresh plasma and the fluorescence was measured in the same manner.

[2] = system: tumor cell lines with wild-type PTEN protein genotype; experiment: Concentration-dependent cytotoxicity by MTT analysis; assay type: cell-based; details: PTEN wild-type cells, up to 100 μM
[3] = system: tumor cell lines with KRAS variant genotype; experiment: as above; assay type: cell-based; details: KRAS variant cells
[4] = system: tumor cells having KRAS variant genotype (Mia-paca2); experiment: Tumor inhibition compared with Aldoxorubicin in mice implanted with KRAS variant tumor cells; assay type: in vivo, C3H/HeN mice; details: Mia-paca2, intravenous every 3 days, equivalent to 5 mg/kg doxorubicin, 1 month
From the text: Using C3H/HeN mice implanted with tumor cells having KRAS variant genotype (Mia-paca2), the tumor inhibition effect of the maleimide-KGDEVD-PABC-doxorubicin (MPD1) synthesized in Example 1 of the present invention, the maleimide-KGDVED-PABC-doxorubicin (EMC-KGDVED-DOX) with different peptide sequence, and Aldoxorubicin, a conventional doxorubicin-based anticancer drug which is linked to a maleimide so that it binds to albumin in plasma upon administration and increases half-life, were compared (FIGS. 19 and 20).

[5] = system: cancer cell groups with PTEN protein loss genotype (H1299, MDA-MB436); experiment: Tumor growth in mice inoculated with PTEN protein loss tumor cells; assay type: in vivo, C3H/HeN mice; details: intravenous every 3 days, equivalent to 1, 5 and 10 mg/kg doxorubicin, 1 month; compared to the control group
Protocol: The maleimide-KGDEVD-PABC-doxorubicin was administered intravenously every 3 days at concentrations equivalent to 1, 5, and 10 mg/kg of doxorubicin, respectively, and observed for 1 month.

[6] = system: tumor cell lines with wild-type KRAS genotype; experiment: Concentration-dependent cytotoxicity by MTT analysis; assay type: cell-based; details: wild-type KRAS cells, concentrations up to 100 μM
[7] = system: tumor cell lines with PTEN protein loss genotype; experiment: as above; assay type: cell-based; details: PTEN protein loss cells, up to 100 μM
[8] = target: T1, serum albumin in human blood (human plasma sample) (Homo sapiens, UniProt P02768); experiment: Conjugate binding with serum albumin in human plasma, HPLC analysis
T1 construct: from tissue; host or cells: human plasma
Protocol: The conjugation binding of maleimide-KGDEVD-PABC-doxorubicin with HSA was completed in 3 min. However, when plasma was pre-incubated with 4-maleimidobutyric acid which has a thiol-bound maleimide functional group, prior to incubation with maleimide-KGDEVD-PABC-doxorubicin no, binding of maleimide-KGDEVD-PABC-doxorubicin to plasma was observed even after 1 h as in the previous experiment conducted with serum.

[9] = Pharmacokinetic analysis in rats; assay type: in vivo, Sprague-Dawley rats; details: equivalent to 1 mg/kg doxorubicin; for half-life: Sprague-Dawley, rat, plasma, iv, 1 mg/kg
Protocol: Blood samples were collected at 5, 15, 30, 60, and 90 min intervals and then again at 2, 4, 8, 12, 24, 48, 72, 96, and 144 h. The blood samples were stabilized with sodium citrate and then cryocentrifuged at 2000×g for 15 min to obtain plasma. 200 μl of the plasma sample was placed in a 96-well black microplate and the fluorescence of doxorubicin was measured at 485/590 nm. The reference was fresh plasma and the fluorescence was measured in the same manner.

[10] = system: cell lines with KRAS variant genotype (Mia-paca2, AsPC1, MDA-MB231, CT26, HCT116, H2122, A549); experiment: Tumor growth in mice inoculated with wild-type KRAS or KRAS variant tumor cells; assay type: in vivo, C3H/HeN mice; details: intravenous every 3 days, equivalent to 1, 5 and 10 mg/kg doxorubicin, 1 month
Protocol: The maleimide-KGDEVD-PABC-doxorubicin was administered intravenously every 3 days at doses equivalent to 1, 5, and 10 mg/kg of doxorubicin, respectively, and then observed for 1 month. […] Therefore, the prodrug conjugate according to one embodiment of the present invention is not expected to have significant side effects.

[11] = target: T2, human serum albumin (HSA) (Homo sapiens, UniProt P02768); experiment: Conjugate binding with human serum albumin, HPLC analysis
T2 construct: purchased Sigma-Aldrich
Protocol: The maleimide-KGDEVD-PABC-doxorubicin synthesized in Example 1 was then added to a concentration of 100 μM and incubated at room temperature. The samples were analyzed by analytical HPLC (FIG. 1). (KGDEVD corresponds to SEQ ID NO: 32)

[12] = target: HSA-Maleimide-KGDVED-PABC-doxorubicin, P02768
[13] = target: HSA-maleimide-KGDEVD-PABC-doxorubicin, P02768

COc1cccc2c1C(=O)c1c(O)c3c(c(O)c1C2=O)C[C@@](O)(C(=O)CO)C[C@@H]3O[C@H]1C[C@H](NC(=O)OCc2ccc(NC(=O)[C@H](CC(=O)O)NC(=O)[C@@H](NC(=O)[C@H](CCC(=O)O)NC(=O)[C@H](CC(=O)O)NC(=O)CNC(=O)[C@H](CCCCN)NC(C)=O)C(C)C)cc2)[C@H](O)[C@H](C)O1 [AcKGDEVD-PABC-doxorubicin, Ac-Lys-Gly-Asp-Glu-Val-Asp-PABC-DOX, reference compound] (Ac-KGDEVD[PABC]-{Doxorubicin(3'-N)})
time until plasma concentration decreased below the detection limit of 5 ng/ml [1]: ≤ 6 h

COc1cccc2c1C(=O)c1c(O)c3c(c(O)c1C2=O)C[C@@](O)(C(=O)CO)C[C@@H]3O[C@H]1C[C@H](NC(=O)OCc2ccc(NC(=O)[C@H](CC(=O)O)NC(=O)[C@@H](NC(=O)[C@H](CCC(=O)O)NC(=O)[C@H](CC(=O)O)NC(=O)CNC(=O)[C@H](CCCCNC(=O)CCCCCN3C(=O)C=CC3=O)NC(C)=O)C(C)C)cc2)[C@H](O)[C@H](C)O1 [maleimide-KGDEVD-PABC-doxorubicin, Ac-Lys(EMC)-Gly-Asp-Glu-Val-Asp-PABC-DOX] (Ac-K(Hexanoyl(6-maleimido))GDEVD[PABC]-{Doxorubicin(3'-N)})
IC50 values based on doxorubicin [2]: lower IC50 values
IC50 [3]: lower
in vivo anticancer effects (tumor inhibition) [4]: anticancer effects similar to those of Aldoxorubicin
tumor inhibition [5]: greater tumor inhibition
IC50 [6]: generally higher
IC50 values based on doxorubicin [7]: higher IC50 values
time to complete conjugation binding with HSA in human plasma ([8]; human plasma, conjugate 100 μM, room temperature): 3 min
binding to plasma pre-incubated with 4-maleimidobutyric acid ([8]; plasma pre-incubated with 4-maleimidobutyric acid, after 1 h): no, binding
half-life ([1]; cynomolgus monkey, in vivo, read-out: terminal half-life): > 4.42 days
time detectable in plasma after administration [1]: 7 days
half-life ([9]; read-out: half-life): > 1140 min
half-life ([9]; read-out: terminal half-life): 30 min
time remained active in plasma after administration ([9]; intravenous): 6 days
time until plasma concentrations decreased below the detection limit of 5 ng/ml ([9]; intravenous): ≤ 4 h
tumor growth inhibition ([10]; KRAS variant versus wild-type KRAS tumors): better tumor growth inhibition than those with wild-type KRAS genotype
effect on body weight of the experimental animals ([10]; wild-type KRAS and KRAS variant tumors): none of the drugs had a significant effect on the body weight
time to complete conjugate binding with HSA ([11]; HSA 700 μM in PBS, conjugate 100 μM, room temperature): 3 min
binding to HSA pre-incubated with 4-maleimidobutyric acid ([11]; HSA pre-incubated with 4-maleimidobutyric acid, after 1 h): no binding

B1: recombinant human caspase-3 (protein)
chain: SGISLDNSYKMDYPEMGLCIIINNKNFHKSTGMTSRSGTDVDAANLRETFRNLKYEVRNKNDLTREEIVELMRDVSKEDHSKRSSFVCVLLSHGEEGIIFGTNGPVDLKKITNFFRGDRCRSLTGKPKLFIIQACRGTELDCGIETDSGVDDDMACHKIPVEADFLYAYSTAPGYYSWRNSKDGSWFIQSLCAMLKQYADKLEFMHILTRVNRKVATEFESFSFDATFHAKKQIPCIVSMLTKELYFYH
cleavage and release of doxorubicin, HPLC [12]: no cleavage was observed for the HSA-Maleimide-KGDVED-PABC-doxorubicin conjugate with a different peptide amino acid sequence
cleavage and release of doxorubicin, HPLC [13]: Doxorubicin was cleaved and isolated from the HSA-maleimide-KGDEVD-PABC-doxorubicin conjugate within 1 h
